Data from patent US20230414596A1 (PRILENIA NEUROTHERAPEUTICS LTD., priority 2020, published 2023).
Where “and” joins values, the source holds several entries; their conditions need not be identical. Equal values may be shown once. Read-outs that look alike come from different tables or passages of the source. Blank lines part the entries; values can stand above or below the compound they belong to.

Legend:
[1] = target: Sigma-2 receptor (S2R) (Homo sapiens (Human), UniProt Q5BJF2); test: Sigma-2 receptor in-vitro binding assay
[2] = test system: B104 rat neuroblastoma cells; test: BDNF release in-situ ELISA in B104 neuroblastoma cells; type: cell-based; settings: 5 days
Source text: […]. Compound 4 alone had no effect on BDNF secretion—(1.5%). […]. Compound 4 alone had no effect on BDNF secretion (−1.5%). […].

[3] = test system: female MeCP2 heterozygous (Rett) mice; settings: 3 mg/kg bid
Method: (§1) Dosing commenced when mice were ˜5.5 weeks of age and continued through the end of behavioral testing. Behavioral testing was done at 8 and 12 weeks of age.
Mice were placed in the PPI chambers (Med Associates) for a 5 min session of white noise (70 dB) habituation.
The inter-trial interval was variable with an average of 15 s (range from 10 to 20 s).

[4] = test system: cultured cortical neurons from the HD YAC128 mouse model; settings: Smith-Dijak et al., 2019; cited from earlier work
[5] = test system: early HD patients; settings: 45 mg bid
Source text: Change from baseline in UHDRS TMS gait balances week 26 (A) and Week 52(B) in early HD (baseline TFC 7-13) patients in the PRIDE-HD study.
Change from baseline in UHDRS TMS gait and balances scale at weeks 26 and 52 in early HD (baseline TFC 7-13).

[6] = test system: BDNF transcripts (BDNF I, IV, VI, IX) mRNA; settings: whole brain, Rett mice
Source text: FIGS. 6A-6C, 7, 8, 9, 10: These figures display mRNA levels of BDNF transcripts measured in the brains of female heterozygous MeCP2 (Rett) mice. […] The relative quantity of the gene target is normalized to the geometric means of the relative quantity of the housekeeping genes APT5B, GAPDH and RPK12A. Relative level of the target gene was then normalized to the WT vehicle group. All data are represented as the mean±SEM. ANOVA followed by Tukey's multiple comparisons test.
Mice were euthanized via cervical dislocation and decapitated. From 10 mice/treatment group, whole brains were collected, weighed, and then frozen on dry ice. Samples were stored at −80° C. until analysis of brain-derived neurotrophic factor (BDNF).
Tissues (whole brain) were homogenized, and RNA extracted and quantified. An aliquote was reverse-transcribed into cDNA.
Up to three independent RT reactions were performed for each RNA sample. qPCR was performed using the primers detailed in Table 5 below.
Whole brain cDNA prepared from a pooled sample of WT vehicle treated animals was used as calibrator (calibrator is diluted same as sample cDNA) to normalized plate-to-plate variations. Each cDNA sample (diluted 1:10) was assayed in triplicates and the Ct values averaged.
Relative quantity of the PCR product (relative to the calibrator) was calculated as follows:
Relative Quantity of Target gene=(PCR EfficiencyTarget)^(Ct caltbrator-Ctsample)
Geometric mean=(relative quantity of housekeeping gene1*relative quantity of housekeeping gene2*relative quantity of housekeeping gene3)^(1/3)
Relative Quantity of Target gene Geometric mean of housekeeping genes
Relative level of target gene was then normalized to the WT vehicle group.

[7] = test system: Rett disease gene expression signature
[8] = test system: female MeCP2 heterozygous (Rett) mice; settings: for Recovery of overall gait features: female Rett mice, 30 mg/kg bid
Method: FIG. 1: Feature recovery as a measure of the therapeutic drug effect on Mecp2-KO Rett Syndrome model mice. This figure is intended to provide an explanation as to how the data is analyzed in FIGS. 4, 5 and 12.
Left: “the cloud graph”: Visualization of the control−disease−(disease+treatment) groups relationship in the optimal discrimination feature space.
The drug treatment effect can be represented as a combination of two components: one along the direction of the “recovery line” (the line connecting the centers of the control (WT) and disease (MECP2-KO) clouds, shown as a thick arrow to the left with diagonal lines on top), and the component orthogonal to (“pointing away” from) that direction shown as an arrow pointing up with parallel lines within. The relative length of the “recovery” arrow with respect to the control-disease distance can then be interpreted as the “recovery due to the drug”, whereas the relative length of the “other effect” (orthogonal with parallel lines inside) arrow represents feature changes that move the disease mice+treatment group away from the control group. The summary of this analysis can be effectively represented as a bar graph (right pane in FIG. 1A) which is typically referred to as the recovery signature.
Right: “the recovery signature” graph: The bar graph represents the summary of the recovery analysis. The overlap and discrimination probability sum up to 100%. The recovery ranges from […]. The lower the overlap, the better the quality of the disease model, and the higher the discrimination power between the WT and Rett mice groups. The “other behavioral effect” is in the same relative units (relative to the length of the distance between the WT and Rett mice groups).
The NeuroCube® system is a platform that employs computer vision to detect changes in gait geometry and gait dynamics in rodent models of neurological disorders, pain & neuropathies. This platform is unique for gait testing for the following reasons: • It is completely automated and thus removes any bias or subjectivity • This system captures both gait geometry and gait dynamics (stance, swing, propulsion, etc.)
Mice were placed in the NeuroCube for a 5 min test. The most dominant of the features collected that define the disease phenotype (symptom descriptors) was identified and ranked. Complex bioinformatic algorithms were employed to calculate the discrimination probability between the WT and the Rett HET MeCP2 mice and detect a test compound's ability to reverse the disease phenotype. Discriminations between mutant and wild type was calculated as well as the recovery of disease features in Rett HET MeCP2 mice treated with the test compound.
The output of NeuroCube is a set of dozens of behavioral features that are submitted for analysis with machine learning techniques used in bioinformatics. Many of these features are correlated (e.g. rearing counts and supported rearing counts). Therefore, PGI forms statistically independent combinations of the original features (further referred to as de-correlated features) that discriminate between the two groups more effectively.
Each de-correlated feature extracts information from the whole cluster of the original features, so the new feature space has lower dimensionality. Next, PGI applies a proprietary feature ranking algorithm to score each feature's discrimination power (ability to separate the two groups, e.g. control and disease).
Ranking is an important part of the analyses because it weighs each feature change by its relevance: if there is a significant change in some irrelevant feature measured for a particular phenotype, the low rank of this feature will automatically reduce the effect of such change in the analyses, so there is no need to resort to the conventional “feature selection” approach and discard information buried in the less informative features.

[9] = test system: female MeCP2 heterozygous (Rett) mice; settings: 30 mg/kg bid orally, 8 weeks of age
Method: Clasping is used to assess muscular strength in limb muscles. Hindlimb clasping is measured in mice held by the tail and gently lifted until the front paws just lift off the counter surface. The experimenter observes the legs and determines clasping or splaying of limbs. […] Data are mean±SEM, N-1 two-proportional tests.
as §1
Mice were held by the tail and gently lifted until the front paws just lift off the counter surface. The experimenter observed the legs and determined clasping or splaying of limbs. After testing, animals were placed back into the test or home cage. Percent clasping of the hindlimbs was determined and reported.

[10] = test system: B6.129P2-Mecp2tm2Bird/J (Rett-KO) male mice; settings: 30 mg/kg bid
Method: The room temperature was maintained between 20 and 23° C. with a relative humidity maintained around 50%. Chow and water were provided ad libitum for the duration of the study.

[11] = test system: B104 rat neuroblastoma cells; settings: in-situ ELISA, Geva et al. 2016; cited from earlier work

Sigma-2 receptor (S2R), sequence (Q5BJF2 whole entry, species assumed): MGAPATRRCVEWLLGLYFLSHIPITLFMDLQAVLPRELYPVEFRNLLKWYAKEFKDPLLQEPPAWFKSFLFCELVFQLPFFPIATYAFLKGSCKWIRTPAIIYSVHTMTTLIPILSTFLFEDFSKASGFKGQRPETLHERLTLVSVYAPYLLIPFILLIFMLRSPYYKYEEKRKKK

Compound: CCCN1CCC(O)(c2cccc(S(C)(=O)=O)c2)CC1 [Compound 1]
S1R fold selectivity (S2R/S1R) [1]: >270 fold
Increase in BDNF release vs untreated control ([2]; Compound 1 alone 1 μM): 12.5%

S1R fold selectivity (S2R/S1R) [1]: >35 fold
Compound: CCCN1CC[C@@H](c2cccc(S(C)(=O)=O)c2)[C@@H](O)C1 [Compound 4]

Compound: CCCN1CCC(c2cccc(S(C)(=O)=O)c2)CC1 [Pridopidine, 4-[3-(methylsulfonyl)phenyl]-1-propyl-piperidine]
Rescue effect on mean startle response ([3]; 8 weeks of age): ~40%
Rescue effect on mean startle response ([3]; 12 weeks of age): ~50%
Impaired homeostatic synaptic plasticity (HSP) [4]: restores impaired HSP
UHDRS TMS gait and balance, Δ from placebo ([5]; HD1 (TFC 11-13), Week 26): −0.31
UHDRS TMS gait and balance, Δ from placebo ([5]; HD1 (TFC 11-13), Week 52): −0.94
UHDRS TMS gait and balance, Δ from placebo ([5]; HD2 (TFC 7-10), Week 26): −0.53
UHDRS TMS gait and balance, Δ from placebo ([5]; HD2 (TFC 7-10), Week 52): −0.18
UHDRS TMS gait and balance, Δ from placebo ([5]; early HD (TFC 7-13), Week 26): −0.48
UHDRS TMS gait and balance, Δ from placebo ([5]; early HD (TFC 7-13), Week 52): −0.41
Increase of BDNF IV mRNA levels ([6]; 3 mg/kg bid and 30 mg/kg bid): ~30%
Effect on mRNA expression of housekeeping genes ATP5B, GAPDH, RPL13A ([6]; 3 and 30 mg/kg bid): does not affect
Effect on BDNF I mRNA levels ([6]; 3 or 30 mg/kg bid): does not affect
Effect on BDNF VI mRNA levels ([6]; 3 or 30 mg/kg bid): does not affect
Increase in BDNF release vs untreated control ([2]; pridopidine alone 0.001 μM): 13.6% and 13.5%
Increase in BDNF release vs untreated control ([2]; pridopidine alone 0.005 μM): 26%
Increase in BDNF release vs untreated control ([2]; pridopidine alone 0.01 μM ([…] in FIG. 17 legend)): 3.4%
NES (normalized enrichment score), genes downstream to BDNF ([7]; 30 mg/kg BID, BDNF-TrkB pathway genes): 1.752
NES (normalized enrichment score) ([7]; cortex, 3 mg/kg BID, geneset Prido Down / Rett Up): 1.356
NES (normalized enrichment score) ([7]; cortex, 3 mg/kg BID, geneset Prido Up / Rett Down): 1.477
NES (normalized enrichment score) ([7]; cortex, 30 mg/kg BID, geneset Prido Down / Rett Up): 2.081
NES (normalized enrichment score) ([7]; cortex, 30 mg/kg BID, geneset Prido Up / Rett Down): −2.631
Reversal of Rett gene expression pattern ([7]; striatum and cortex of Rett mice, GSEA): strongly reverses
NES (normalized enrichment score) ([7]; striatum, 3 mg/kg BID, geneset Down with Prido / Up in Rett): 2.18
NES (normalized enrichment score) ([7]; striatum, 3 mg/kg BID, geneset Up with Prido / Down in Rett): −2.50
NES (normalized enrichment score) ([7]; striatum, 30 mg/kg BID, geneset Up with Prido / Down in Rett): −1.77
% Recovery 3 mg/kg BID, Body Motion ([8]; 8 weeks, 3 mg/kg BID): 81%,
% Recovery 3 mg/kg BID, Gait ([8]; 8 weeks, 3 mg/kg BID): 38%,
% Recovery 30 mg/kg BID, Body Motion ([8]; 8 weeks, 30 mg/kg BID): 84%,
% Recovery 30 mg/kg BID, Gait ([8]; 8 weeks, 30 mg/kg BID): 71%,
% Recovery 3 mg/kg BID, Body Motion ([8]; 12 weeks, 3 mg/kg BID): 65%,
% Recovery 3 mg/kg BID, Gait ([8]; 12 weeks, 3 mg/kg BID): 60%,
% Recovery 3 mg/kg BID, Paw Positioning ([8]; 12 weeks, 3 mg/kg BID): 35%,
% Recovery 30 mg/kg BID, Body Motion ([8]; 12 weeks, 30 mg/kg BID): 59%,
% Recovery 30 mg/kg BID, Gait ([8]; 12 weeks, 30 mg/kg BID): 100%,
% Recovery 30 mg/kg BID, Paw Positioning ([8]; 12 weeks, 30 mg/kg BID): 52%,
Recovery of overall gait features ([8]; 8 weeks of age): 45%
Recovery of overall gait features ([8]; 12 weeks of age): 55%
Percent clasping of the hindlimbs [9]: zero
Percent clasping of the hindlimbs ([9]; listed as pridopidine): 0%
Recovery of gait deficits ([10]; 6 weeks of age): 44%
Recovery of gait deficits ([10]; 7 weeks of age): 100%
BDNF secretion in rat neuroblastoma cells [11]: dose dependent increase
